Measured values as given in US10947205B2, “Oxazolidinone compounds and methods of use thereof as antibacterial agents” (priority 2015, dated 2021).
In brackets after ≈: the same amount, converted by molar mass. Where two headings read alike, the source gives them in different places.

Columns and labels:
[1] = system: Mycobacterium tuberculosis (Mtb); experiment: microbe, parasite or virus in culture; type: cell-based, Mycobacterium tuberculosis H37Rv (Mtb-GFP); settings: 168 h
[2] = system: Staphylococcus aureus (methicillin resistant, MB5393, COL); experiment: microbe, parasite or virus in culture; type: cell-based; settings: MRSA, 22 h, read-out: MRSA COL MITC95 μM
Procedure: Inhibition of Staphylococcus aureus (methicillin resistant, MB5393, COL) growth was assessed in cation adjusted Mueller Hinton II broth (CAMHB) in 384-well microtiter plates. Bacteria were dispensed into microtiter plates at approximately 5×10^5 actively growing cells in 49 μL volumes per well. Cells were exposed to 2-fold serial dilutions of compounds from 200 μM to 0.195 μM and growth compared to drug-free control. Compound dilutions were prepared in 100% dimethylsulfoxide and added to microtiter plates in 1 μL volumes per well. Full growth control wells contained dimethylsufoxide and bacteria. No growth control wells contained dimethysulfoxide and CAMHB but no bacteria. Growth inhibition was assessed after a 22-hour growth period by measuring optical density using a spectrophotometer. The lowest concentration of test compound required to inhibit 95% of the growth of the bacteria was defined as the MITC95. All studies were done in a BSL2 facility.

[3] = system: mitochondrial protein synthesis in HepG2 cells (COX-I / SDH-A); experiment: Mitochondrial protein synthesis assay; type: cell-based; settings: Homo sapiens, 96 h; HepG2 cells, 4 days, ratio of COX-1 to SDH-A levels; read-out: MPS IC50_μM
Procedure: (§1) Inhibition of mitochondrial protein synthesis was assessed in HepG2 cells by comparing the levels of two subunits of oxidative phosphorylation enzyme complexes, subunit I of Complex IV (COX-I) and the 70 kDa subunit of Complex II (SDH-A). COX-I is mitochondrial DNA encoded and SDH-A is nuclear DNA encoded. HepG2 cells were seeded in 96-well collagen coated plates at 8,000 cells per well and exposed to 2-fold serial dilutions of compounds from 100 LM to 6.25 μM. Microtiter plates were incubated for approximately 5 replication cycles (4 days) prior to assessment of protein levels using a kit as described by the manufacturer (ab 110217 MitoBiogenesis In Cell ELISA Kit, Abcam, Cambridge, Mass.). Inhibition of mitochondrial protein synthesis was expressed as a ratio of COX-1 to SDH-A levels.
as §1, with “μM” for “LM”

[4] = pH 6.8, read-out: Mtb Cho MITC95_μM
[5] = pH 6.8, read-out: Mtb Glu MITC95_μM

Row | Compound | MIC [1, 4] | MIC [1, 5] | MIC [2] | IC50 [3]
1 | CSc1ccc(-c2ccc(N3CC(Cn4ccnc4)OC3=O)cc2F)cc1 (stereo in doubt) [Example 45, (5R)-3-[2-fluoro-4′-(methylsulfanyl)biphenyl-4-yl]-5-(1H-imidazol-1-ylmethyl)-1,3-oxazolidin-2-one] | 0.39 µM (≈ 0.15 µg/mL) | 1.14 µM (≈ 0.437 µg/mL) | 200 µM (≈ 76.7 µg/mL) | –
2 | CSc1ccc(-c2ccc(N3C[C@H](CN)OC3=O)cc2F)cc1 [Example 1, (S)-5-(aminomethyl)-3-(2-fluoro-4′-(methylthio)-[1,1′-biphenyl]-4-yl)oxazolidin-2-one] | 0.03 µM (≈ 0.00997 µg/mL) | 0.04 µM (≈ 0.0133 µg/mL) | 25 µM (≈ 8.31 µg/mL) | 12.2 µM
3 | NC[C@H]1CN(c2ccc(-c3ccc(C(N)=O)cc3)c(F)c2)C(=O)O1 [Example 2, 4′-[(5S)-5-(aminomethyl)-2-oxo-1,3-oxazolidin-3-yl]-2′-fluorobiphenyl-4-carboxamide] | 0.03 µM (≈ 0.00988 µg/mL) | 0.02 µM (≈ 0.00659 µg/mL) | 200 µM (≈ 65.9 µg/mL) | > 25 µM
4 | CSc1cccc(-c2ccc(N3C[C@H](CN)OC3=O)cc2F)c1 [Example 3, (5S)-5-(aminomethyl)-3-[2-fluoro-3′-(methylsulfanyl)biphenyl-4-yl]-1,3-oxazolidin-2-one] | 0.78 µM (≈ 0.259 µg/mL) | 1.14 µM (≈ 0.379 µg/mL) | 100 µM (≈ 33.2 µg/mL) | > 20 µM
5 | CS(=O)(=O)c1ccc(-c2ccc(N3C[C@H](CN)OC3=O)cc2F)cc1 [Example 4, (5S)-5-(aminomethyl)-3-[2-fluoro-4′-(methylsulfonyl)biphenyl-4-yl]-1,3-oxazolidin-2-one] | 0.09 µM (≈ 0.0328 µg/mL) | 0.04 µM (≈ 0.0146 µg/mL) | 200 µM (≈ 72.9 µg/mL) | 22 µM
6 | NC[C@H]1CN(c2ccc(-c3ccc4ncnn4c3)c(F)c2)C(=O)O1 [Example 5, (5S)-5-(aminomethyl)-3-(3-fluoro-4-[1,2,4]triazolo[1,5-a]pyridin-6-ylphenyl)-1,3-oxazolidin-2-one] | 0.09 µM (≈ 0.0295 µg/mL) | 0.04 µM (≈ 0.0131 µg/mL) | 200 µM (≈ 65.5 µg/mL) | > 20 µM
7 | NC[C@H]1CN(c2ccc(-c3ccc(S(N)(=O)=O)cc3)c(F)c2)C(=O)O1 [Example 6, 4′-[(5S)-5-(aminomethyl)-2-oxo-1,3-oxazolidin-3-yl]-2′-fluorobiphenyl-4-sulfonamide] | 0.04 µM (≈ 0.0146 µg/mL) | 0.04 µM (≈ 0.0146 µg/mL) | 100 µM (≈ 36.5 µg/mL) | > 20 µM
8 | C[S+]([O-])c1ccc(-c2ccc(N3C[C@H](CN)OC3=O)cc2F)cc1 (stereo partly drawn) [Example 7, (5S)-5-(aminomethyl)-3-[2-fluoro-4′-(methylsulfinyl)biphenyl-4-yl]-1,3-oxazolidin-2-one] | 0.09 µM (≈ 0.0314 µg/mL) | 0.04 µM (≈ 0.0139 µg/mL) | 200 µM (≈ 69.7 µg/mL) | > 20 µM
9 | NC[C@H]1CN(c2ccc(-c3ccn4ncnc4c3)c(F)c2)C(=O)O1 [Example 8, (5S)-5-(aminomethyl)-3-(3-fluoro-4-[1,2,4]triazolo[1,5-a]pyridin-7-ylphenyl)-1,3-oxazolidin-2-one] | 0.04 µM (≈ 0.0131 µg/mL) | 0.04 µM (≈ 0.0131 µg/mL) | 200 µM (≈ 65.5 µg/mL) | > 20 µM
10 | NC[C@H]1CN(c2ccc(-c3ccc4nncn4c3)c(F)c2)C(=O)O1 [Example 9, (5S)-5-(aminomethyl)-3-(3-fluoro-4-[1,2,4]triazolo[4,3-a]pyridin-6-ylphenyl)-1,3-oxazolidin-2-one] | 0.14 µM (≈ 0.0458 µg/mL) | 0.09 µM (≈ 0.0295 µg/mL) | 200 µM (≈ 65.5 µg/mL) | > 20 µM
11 | NC[C@H]1CN(c2ccc(-c3cccc(C(N)=O)c3)c(F)c2)C(=O)O1 [Example 10, 4′-[(5S)-5-(aminomethyl)-2-oxo-1,3-oxazolidin-3-yl]-2′-fluorobiphenyl-3-carboxamide] | 0.09 µM (≈ 0.0296 µg/mL) | 0.09 µM (≈ 0.0296 µg/mL) | 200 µM (≈ 65.9 µg/mL) | > 20 µM
12 | NC[C@H]1CN(c2ccc(-c3ccc(O)cc3)c(F)c2)C(=O)O1 [Example 11, (5S)-5-(aminomethyl)-3-(2-fluoro-4′-hydroxybiphenyl-4-yl)-1,3-oxazolidin-2-one] | 0.14 µM (≈ 0.0423 µg/mL) | 25.1 µM (≈ 7.59 µg/mL) | 200 µM (≈ 60.5 µg/mL) | –
13 | NC[C@H]1CN(c2ccc(-c3ccoc3)c(F)c2)C(=O)O1 [Example 12, (5S)-5-(aminomethyl)-3-(3-fluoro-4-furan-3-ylphenyl)-1,3-oxazolidin-2-one] | 1.14 µM (≈ 0.315 µg/mL) | 1.14 µM (≈ 0.315 µg/mL) | 200 µM (≈ 55.3 µg/mL) | –
14 | N#Cc1cccc(-c2ccc(N3C[C@H](CN)OC3=O)cc2F)c1 [Example 13, 4′-[(5S)-5-(aminomethyl)-2-oxo-1,3-oxazolidin-3-yl]-2′-fluorobiphenyl-3-carbonitrile] | 0.19 µM (≈ 0.0592 µg/mL) | 0.19 µM (≈ 0.0592 µg/mL) | 200 µM (≈ 62.3 µg/mL) | > 20 µM
15 | CN(C)S(=O)(=O)c1ccc(-c2ccc(N3C[C@H](CN)OC3=O)cc2F)cc1 [Example 14, 4′-[(5S)-5-(aminomethyl)-2-oxo-1,3-oxazolidin-3-yl]-2′-fluoro-N,N-dimethylbiphenyl-4-sulfonamide] | 1.14 µM (≈ 0.449 µg/mL) | 0.78 µM (≈ 0.307 µg/mL) | 200 µM (≈ 78.7 µg/mL) | –
16 | NC[C@H]1CN(c2ccc(-c3ccsc3)c(F)c2)C(=O)O1 [Example 15, (5S)-5-(aminomethyl)-3-(3-fluoro-4-thiophen-3-ylphenyl)-1,3-oxazolidin-2-one] | 0.58 µM (≈ 0.17 µg/mL) | 1.14 µM (≈ 0.333 µg/mL) | 200 µM (≈ 58.5 µg/mL) | –
17 | NC[C@H]1CN(c2ccc(-c3ccn[nH]3)c(F)c2)C(=O)O1 [Example 16, (5S)-5-(aminomethyl)-3-[3-fluoro-4-(1H-pyrazol-5-yl)phenyl]-1,3-oxazolidin-2-one] | 0.39 µM (≈ 0.108 µg/mL) | 0.19 µM (≈ 0.0525 µg/mL) | 200 µM (≈ 55.3 µg/mL) | > 20 µM
18 | CS(=O)(=O)Nc1ccc(-c2ccc(N3C[C@H](CN)OC3=O)cc2F)cc1 [Example 17, N-{4′-[(5S)-5-(aminomethyl)-2-oxo-1,3-oxazolidin-3-yl]-2′-fluorobiphenyl-4-yl}methanesulfonamide] | 0.29 µM (≈ 0.11 µg/mL) | 0.09 µM (≈ 0.0341 µg/mL) | 200 µM (≈ 75.9 µg/mL) | > 20 µM
19 | N#Cc1ccc(-c2ccc(N3C[C@H](CN)OC3=O)cc2F)cc1 [Example 18, 4′-[(5S)-5-(aminomethyl)-2-oxo-1,3-oxazolidin-3-yl]-2′-fluorobiphenyl-4-carbonitrile] | 0.09 µM (≈ 0.028 µg/mL) | 0.04 µM (≈ 0.0125 µg/mL) | 50 µM (≈ 15.6 µg/mL) | > 20 µM
20 | NC[C@H]1CN(c2ccc(-c3ccc(F)nc3)c(F)c2)C(=O)O1 [Example 19, (5S)-5-(aminomethyl)-3-[3-fluoro-4-(6-fluoropyridin-3-yl)phenyl]-1,3-oxazolidin-2-one] | 0.09 µM (≈ 0.0275 µg/mL) | 0.485 µM (≈ 0.148 µg/mL) | 200 µM (≈ 61.1 µg/mL) | > 20 µM
21 | NC[C@H]1CN(c2ccc(-c3cccc([N+](=O)[O-])c3)c(F)c2)C(=O)O1 [Example 20, (5S)-5-(aminomethyl)-3-(2-fluoro-3′-nitrobiphenyl-4-yl)-1,3-oxazolidin-2-one] | 0.58 µM (≈ 0.192 µg/mL) | 0.14 µM (≈ 0.0464 µg/mL) | 200 µM (≈ 66.3 µg/mL) | > 20 µM
22 | NC[C@H]1CN(c2ccc(-c3cccc(N4CCS(=O)(=O)CC4)c3)c(F)c2)C(=O)O1 [Example 21, (5S)-5-(aminomethyl)-3-[3′-(1,1-dioxidothiomorpholin-4-yl)-2-fluorobiphenyl-4-yl]-1,3-oxazolidin-2-one] | 1.5 µM (≈ 0.629 µg/mL) | 0.39 µM (≈ 0.164 µg/mL) | 200 µM (≈ 83.9 µg/mL) | 25 µM
23 | NC[C@H]1CN(c2ccc(-c3cncc4[nH]ccc34)c(F)c2)C(=O)O1 [Example 35, (5S)-5-(aminomethyl)-3-[3-fluoro-4-(1H-pyrrolo[2,3-c]pyridin-4-yl)phenyl]-1,3-oxazolidin-2-one] | 0.58 µM (≈ 0.189 µg/mL) | 1.14 µM (≈ 0.372 µg/mL) | 200 µM (≈ 65.3 µg/mL) | –
24 | NC[C@H]1CN(c2ccc(-c3cnn(C(F)F)c3)c(F)c2)C(=O)O1 [Example 36, (5S)-5-(aminomethyl)-3-{4-[1-(difluoromethyl)-1H-pyrazol-4-yl]-3-fluorophenyl}-1,3-oxazolidin-2-one] | 0.48 µM (≈ 0.157 µg/mL) | 1.5 µM (≈ 0.489 µg/mL) | 200 µM (≈ 65.3 µg/mL) | –
25 | CSc1ccc(-c2ccc(N3C[C@H](CNC(=O)NN(C)C)OC3=O)cc2F)cc1 [Example 60, (S)—N-((3-(2-fluoro-4′-(methylthio)-[1,1′-biphenyl]-4-yl)-2-oxooxazolidin-5-yl)methyl)-2,2-dimethylhydrazinecarboxamide] | 1.14 µM (≈ 0.477 µg/mL) | 2.3 µM (≈ 0.963 µg/mL) | 200 µM (≈ 83.7 µg/mL) | –
